Entries after “also recorded” stand apart in the source; their conditions may differ.
Columns and labels:
[1] = Nonclinical safety studies incl. 28-day GLP study in rat; assay type: in vivo; conditions: rats
Source text: The nonclinical safety of Compound A has been evaluated in a series of pharmacological, single-dose and repeated-dose toxicological studies in rodent and non-rodent species including 28-day Good Laboratory Practice (GLP) studies in rat and monkeys. […] All changes were resolved or resolving after 2 weeks of dosing cessation, except for the testicular changes in rats. The nonclinical safety assessment from these studies supports clinical evaluation of Compound A in humans. The initial planned dose of Compound A for this study is 200 mg once daily (QD), based on evaluation of the Compound A nonclinical safety data.

AHR = target: T1, AHR (Rattus norvegicus, UniProt P41738); experiment: AHR-dependent Cyp1A1 expression (P450-Glo) in rat H411E hepatoma cells stimulated with L-kynurenine; assay type: cell-based; conditions: 100 μM L-kynurenine, 24 hours
T1 construct: In rat hepatoma H411E cells treated with 100 μM L-kynurenine; endogenous in cells; host or cells: H411E rat hepatoma cells
T1 sequence (P41738 10-853): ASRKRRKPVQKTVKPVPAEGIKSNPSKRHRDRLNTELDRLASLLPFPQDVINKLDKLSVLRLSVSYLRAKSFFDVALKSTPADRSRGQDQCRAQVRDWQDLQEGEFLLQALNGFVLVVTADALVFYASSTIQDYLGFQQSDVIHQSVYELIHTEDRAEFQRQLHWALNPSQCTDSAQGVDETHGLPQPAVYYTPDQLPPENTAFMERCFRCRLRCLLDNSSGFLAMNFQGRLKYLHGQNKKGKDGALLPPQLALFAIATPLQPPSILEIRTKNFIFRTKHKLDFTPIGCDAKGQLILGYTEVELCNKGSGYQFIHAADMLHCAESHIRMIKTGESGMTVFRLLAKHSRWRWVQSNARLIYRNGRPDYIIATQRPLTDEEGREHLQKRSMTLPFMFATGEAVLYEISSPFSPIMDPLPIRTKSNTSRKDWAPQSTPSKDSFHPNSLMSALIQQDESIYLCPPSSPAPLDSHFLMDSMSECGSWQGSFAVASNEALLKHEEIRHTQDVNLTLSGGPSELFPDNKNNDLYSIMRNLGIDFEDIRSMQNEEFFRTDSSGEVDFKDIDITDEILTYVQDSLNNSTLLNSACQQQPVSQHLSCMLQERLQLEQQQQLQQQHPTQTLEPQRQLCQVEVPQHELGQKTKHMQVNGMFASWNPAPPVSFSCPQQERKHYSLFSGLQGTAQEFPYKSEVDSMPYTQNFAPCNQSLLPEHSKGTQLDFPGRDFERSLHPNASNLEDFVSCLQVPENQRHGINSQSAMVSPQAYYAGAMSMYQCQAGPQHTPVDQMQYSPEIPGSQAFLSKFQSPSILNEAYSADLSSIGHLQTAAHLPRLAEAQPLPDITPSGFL
Experimental: The ability of Compound A to inhibit AHR-dependent Cyp1A1 gene expression was examined in vitro by measuring changes in Cyp1A1 enzymatic activity in 2 rodent hepatoma cell lines following AHR agonist stimulation. Mouse Hepa1.6 and rat H411E hepatoma cells were treated with AHR agonists VAF347 and L-kynurenine, respectively, in the presence of Compound A at multiple concentrations for 24 hours. The inhibition of Cyp1A1 expression was subsequently evaluated by measuring Cyp1A1 enzyme activity using P450-Glo assays.

[2] = Two stage gastric transfer non-sink dissolution test (0.1N HCl then FaSSIF); assay type: physicochemical; conditions: 100 RPM
Experimental: In vitro drug dissolution performance for both API forms and each SDI was evaluated by the two stage ‘gastric transfer’ non-sink dissolution test (Table 8), which simulates pH and bile salt concentrations for both gastric and intestinal exposure in a sample to perform assay. Pre-weighed SDI powder is briefly suspended in media (e.g., by 10 sec vortex mixing with 4.0 mL media) and transferred to a pre-heated (37° C.) volume of 50 mL of 0.1N HCl (aq) (simulated gastric fluid or SGF, pH ˜1.0, without pepsin or bile salts), in a USP Type 2 mini-vessel (100 mL total vessel volume) while stirring (paddles) at 100 rpm. […] Initial Compound A API measurements and SDI dissolution samples were determined utilizing a HPLC method (Table 7). […]

Which results are given for CC(C)c1cnn2c(N[C@@H]3CCc4[nH]c5ccccc5c4C3)nc(-c3cncc(F)c3)nc12 [Compound A, (R)—N-(2-(5-fluoropyridin-3-yl)-8-isopropylpyrazolo[1,5-a][1,3,5]triazin-4-yl)-2,3,4,9-tetrahydro-1H-carbazol-3-amine]?
noteworthy findings in nonclinical safety studies [1]: non-glandular stomach ulceration and edema; also recorded: seminiferous tubule degeneration and debris in the epididymis lumen; IC50 (AHR): 0.151 µM; AUC35-210 FaSSIF (area under the curve after transfer to FaSSIF from 35 to 210 minutes) [2]: 2100 min*μgA/mL; C210 (drug concentration at 180 minutes after transfer to FaSSIF) [2]: 4.5 μgA/mL

From patent US20230026232A1, “AHR INHIBITORS AND USES THEREOF” (Ikena Oncology, Inc., priority 2019, published 2023)
